{"source": "patent US20080161258A1", "about": "“Hsp and Supraventricular Arrhythmia” (priority 2004, published 2008)", "key": {"[1]": {"test_system": "HSP27 and HSP70 expression in HL-1 myocytes", "assay": "HSP expression in paced HL-1 myocytes (Western blot)", "format": "cell-based, mouse", "details": "0.1 μM GGA two hours prior to and during pacing, FIG. 3A", "method": "(§1) The HL-1 atrial myocytes, developed from adult mouse atria^29 were obtained from Dr. William Claycomb (Louisiana State University, New Orleans, La., USA) and cultured as described before.^28\nHL-1 myocytes (≧1×10^6 myocytes) were cultured on coverslips and subjected to a 10-fold rate increase (rapid pacing) by electrical field stimulation (5 Hz, 1.5 V/cm field strength; Grass S88 stimulator).^28 Elevation of HSP expression in cultured myocytes was accomplished in 3 ways: (I) by subjection to a modest heat stress at 43° C. for 30 min followed by overnight incubation at 37° C., (II) by incubation with 0.1 μM geranylgeranylacetone (GGA, gift from M. Kawai, Japan) two hours prior to and during pacing and (III) by transfection of pHSP70-YFP or pHSP27 24 hrs prior to pacing.\nFor Western-blot analysis, frozen RAAs and LAAs were used for protein isolation as described previously.^6 For the isolation of proteins from HL-1 myocytes, the cells were lysed by the addition of SDS-PAGE sample buffer followed by sonication before separation on 10% PAA-SDS gels (1.10^5 cells/slot). […] Signals were detected by the ECL-detection method (Amersham, The Netherlands) and quantified by densitometry. […]"}, "HL-1 myocytes": {"test_system": "HL-1 myocytes", "assay": "Pacing-induced myolysis in HL-1 myocytes (myosin immunofluorescence)", "format": "cell-based, mouse", "description": "as §1\nLipofectamine (Life technologies, The Netherlands) was used for transient transfections according to instructions of the manufacturer. pHSP70-YFP encodes a functional human HSP70 fused to YFP under control of a CMV promoter. pHSP27 encodes human HSP27 under control of CMV promoter. […]\nAfter subjecting HL-1 myocytes to rapid pacing, the cells were fixed for 10 minutes in 100% methanol (−20° C.), dried and blocked in 5% BSA (20 minutes room temperature). […] Images of FITC, YFP or CY3 and DAPI fluorescence were obtained by using a Leica confocal laser-scanning microscope (Leica TCS SP2).\nFor the quantification of the amount of myolysis, at least 5 fields were examined with to a total amount of 250-500 myocytes, and myosin disruption (characteristic for myolysis^12) was scored by three independent observers blinded for the experimental groups. […]"}, "HL-1 cells [2]": {"test_system": "HL-1 cells", "assay": "Calcium transients and cell shortening in tachypaced HL-1 cells", "format": "cell-based, mouse", "method": "In addition to myolysis, we studied the effects of short-term tachypacing of HL-1 cells (3 Hz for 2, 3 and 4 hrs) on Ca^2+ transients (CaTs) and cell shortening (CS) in HL-1 cells, with and without pre-treatment to induce HSP expression: the heat shock stress response inducer geranylgeranylacetone (GGA, 10 μM) or heat shock at 43° C. for 20 minutes (HS) or transient transfection with human HSP27 (pHSP27). In brief, myocytes were field-stimulated with 10-ms twice-threshold strength square-wave pulses. CS was measured with a video edge-detector connected to a charge-coupled device. To record CaTs, myocytes were incubated with indo-1 AM (5-μM) for 5-7 min. Myocytes were then superfused at room temperature for at least 40 min to wash out extracellular indicator and to allow for deesterification. Background and cell autofluorescence were cancelled by zeroing the photomultiplier output in a cell without indo-1 loading. Ultraviolet light from a 100-W mercury arc lamp passing through a 340-nm interference filter (±10 nm bandwidth) was reflected by a dichroic mirror into a ×40 oil-immersion fluor objective for excitation of intracellular indo-1 (excitation beam ˜15 μm diameter). Exposure of the cell to UV light (5-10 of every 30-60 s) was controlled by an electronic shutter (Optikon, model T132) to minimize photobleaching. Emitted light (<550 nm) was reflected into a spectral separator, passed through parallel filters at 400 and 500 nm (+10 nm), detected by matched photomultiplier-tubes (Hamamatsu R2560 HA) and electronically filtered at 60 Hz. The ratio of fluorescence signals (R400/500) was digitized (1 kHz) and used as the index of [Ca^2+]i^(48)."}, "HL-1 cells [3]": {"test_system": "HL-1 cells", "assay": "Calcium current density (ICa++) in paced HL-1 cells", "format": "cell-based, mouse", "details": "HL-1 cells paced for 4 h; GGA two hours prior to and during pacing; FIG. 5", "method": "I-V relationships of peak ICα++ in non-paced (CON) and paced (PC) HL-1 cells. ICα++ was recorded using 300-ms voltage steps to between −70 and +70 mV from −80 mV."}, "[4]": {"test_system": "dogs subjected to atrial tachypacing", "assay": "Atrial tachycardia-induced remodeling in dogs (atrial tachypacing)", "format": "in vivo, dog", "details": "ATP 400 bpm for 7 days", "method": "The effect of HSP induction on in vivo AF-promotion was examined studying the effect of GGA on atrial tachycardia-induced remodeling in dogs (49). Dogs were subjected to atrial tachypacing (ATP) at 400 bpm for 7 days in the absence (ATP, n=5) and presence of oral GGA treatment (120 mg/kg/day, n=3), starting 3 days prior to ATP onset and continued throughout ATP. Results were compared to a non-paced control group (NP, n=5 dogs). Mongrel dogs (20 to 37 kg) were anesthetized with ketamine (5.3 mg/kg IV), diazepam (0.25 mg/kg IV), and halothane (1.5%). Unipolar leads were inserted through jugular veins into the right ventricular (RV) apex and right atrial (RA) appendage and connected to pacemakers (Medtronic) in subcutaneous pockets in the neck. A bipolar electrode was inserted into the RA for stimulation and recording during serial electrophysiological study (EPS). AV block was created by radiofrequency ablation to control ventricular response during atrial tachypacing (ATP). The RV pacemaker was programmed to 80 bpm. For open-chest EPS, dogs were anesthetized with morphine (2 mg/kg SC) and α-chloralose (120 mg/kg IV, followed by 29.25 mg·kg^−1·h^−1), and ventilated mechanically. Body temperature was maintained at 37° C., and a femoral artery and both femoral veins were cannulated for pressure monitoring and drug administration. A median sternotomy was performed, and bipolar electrodes were hooked to the RA and left atrial (LA) appendages for recording and stimulation. A programmable stimulator (Digital Cardiovascular Instruments) was used to deliver twice-threshold currents. Five silicon sheets containing 240 bipolar electrodes were sutured onto the atrial surfaces as previously described.^6-8http://circ.ahajournals.org/cgi/content/full/110/16/2313-R7-155347http://circ.ahajournals.org/cgi/content/full/110/16/2313-R8-155347 Atrial effective refractory periods (ERPs) were measured at multiple basic cycle lengths (BCLs) in the RA and LA appendages. AF vulnerability was determined as the percentage of atrial sites at which AF could be induced by single extrastimuli. After 24 hours for recovery, a baseline closed-chest EPS was performed under ketamine/diazepam/isoflurane anesthesia, and then ATP (400 bpm) was initiated. Closed-chest EPS was repeated at day 7 of ATP, and a final open-chest EPS was performed under morphine/α-chloralose anesthesia."}}, "note": "Entries after “also recorded” stand apart in the source; their conditions may differ."}
{"substance": "geranylgeranylacetone [GGA]", "values": [{"measurement": "HSP27 expression", "setting": "[1]", "result": "substantial elevations; also recorded: induces the expression"}, {"measurement": "HSP70 expression", "setting": "[1]", "result": "substantial elevations; also recorded: induces the expression"}, {"measurement": "Immunofluorescent staining of myosin in paced myocytes", "setting": "HL-1 myocytes; 16 hrs paced HL-1 myocytes, FIG. 3B", "result": "myosin-staining remains diffusely distributed in the cytoplasm"}, {"measurement": "pacing-induced myolysis", "setting": "HL-1 myocytes; HL-1 myocytes, rapid pacing 5 Hz, GGA 0.1 μM two hours prior to and during pacing, or transfection 24 hrs prior to pacing", "result": "significant reduction"}, {"measurement": "pacing-induced CaT and CS reductions", "setting": "HL-1 cells [2]; HL-1 cells tachypaced 3 Hz for 2, 3 and 4 hrs, GGA 10 μM or transient transfection with pHSP27", "result": "significantly prevented"}, {"measurement": "reduction of Ca2+ transients (CaT) after pacing", "setting": "HL-1 cells [2]; HL-1 cells, 3 Hz, 2 hrs pacing, GGA 10 μM, p=0.01 vs tachypaced without GGA", "result": "2%±6%"}, {"measurement": "reduction of cell-shortening (CS) after pacing", "setting": "HL-1 cells [2]; HL-1 cells, 3 Hz, 2 hrs pacing, GGA 10 μM, p=0.03 vs tachypaced without GGA", "result": "11%±3%"}, {"measurement": "pacing-induced reduction of calcium current density (Ica++)", "setting": "HL-1 cells [3]", "result": "the reduction was prevented; also recorded: strongly"}, {"measurement": "ATP-induced changes (DAF, ERP, vulnerability)", "setting": "[4]; oral GGA 120 mg/kg/day", "result": "almost completely suppressed"}, {"measurement": "duration of induced AF (DAF)", "setting": "[4]; oral GGA 120 mg/kg/day starting 3 days prior to ATP, p<0.05 vs ATP", "result": "39 ± 15", "unit": "s"}, {"measurement": "atrial effective refractory period (ERP)", "setting": "[4]; oral GGA 120 mg/kg/day, basic cycle length 300 ms, p<0.05 vs ATP", "result": "102 ± 3", "unit": "ms"}, {"measurement": "atrial vulnerability to AF (% of atrial sites in which AF was induced by a single extra stimulus)", "setting": "[4]; oral GGA 120 mg/kg/day, p<0.05 vs ATP", "result": "13±7", "unit": "%"}]}
